Experimental data reported in patent publication US10660877B2 (BRISTOL-MYERS SQUIBB COMPANY, priority 2016, dated 2020).
Read-outs that look alike come from different tables or passages of the source.

Experiments:
[1] = target: human TLR8 (Homo sapiens (Human), UniProt Q9NR97); assay: TLR8 inhibition reporter assay (HEK-Blue cells, SEAP reporter, R848 stimulation);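 further: compounds tested from 0.05 nM to 50 µM, 22 h at 37 °C, SEAP measured with HEK-Blue Detection, inhibition relative to agonist plus DMSO versus a known inhibitor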
[2] = target: human TLR7 (Homo sapiens (Human), UniProt Q9NYK1); assay: TLR7 inhibition reporter assay (HEK-Blue cells, SEAP reporter, gardiquimod stimulation); type: cell-based
[3] = target: human TLR9 (Homo sapiens (Human), UniProt Q9NR96); assay: TLR9 inhibition reporter assay (HEK-Blue cells, SEAP reporter, ODN2006 stimulation);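 further: compounds tested over 0.05 nM to 50 µM, 22 h incubation, inhibition taken as SEAP signal drop from agonist plus DMSO wells toward a known inhibitor control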
[4] = read-out: TLR8 IC50, HEK-Blue cells overexpressing human TLR8, R848 15.9 μM
[5] = HEK-Blue cells overexpressing human TLR7, gardiquimod 7.5 μM
[6] = read-out: TLR9 IC50, HEK-Blue cells overexpressing human TLR9, ODN2006 5 nM
[7] = read-out: TLR8 IC50, HEK-Blue cells, R848 15.9 μM
[8] = HEK-Blue cells, gardiquimod 7.5 μM
[9] = read-out: TLR9 IC50, HEK-Blue cells, ODN2006 5 nM

Chain of human TLR7 (Q9NYK1 27-1049): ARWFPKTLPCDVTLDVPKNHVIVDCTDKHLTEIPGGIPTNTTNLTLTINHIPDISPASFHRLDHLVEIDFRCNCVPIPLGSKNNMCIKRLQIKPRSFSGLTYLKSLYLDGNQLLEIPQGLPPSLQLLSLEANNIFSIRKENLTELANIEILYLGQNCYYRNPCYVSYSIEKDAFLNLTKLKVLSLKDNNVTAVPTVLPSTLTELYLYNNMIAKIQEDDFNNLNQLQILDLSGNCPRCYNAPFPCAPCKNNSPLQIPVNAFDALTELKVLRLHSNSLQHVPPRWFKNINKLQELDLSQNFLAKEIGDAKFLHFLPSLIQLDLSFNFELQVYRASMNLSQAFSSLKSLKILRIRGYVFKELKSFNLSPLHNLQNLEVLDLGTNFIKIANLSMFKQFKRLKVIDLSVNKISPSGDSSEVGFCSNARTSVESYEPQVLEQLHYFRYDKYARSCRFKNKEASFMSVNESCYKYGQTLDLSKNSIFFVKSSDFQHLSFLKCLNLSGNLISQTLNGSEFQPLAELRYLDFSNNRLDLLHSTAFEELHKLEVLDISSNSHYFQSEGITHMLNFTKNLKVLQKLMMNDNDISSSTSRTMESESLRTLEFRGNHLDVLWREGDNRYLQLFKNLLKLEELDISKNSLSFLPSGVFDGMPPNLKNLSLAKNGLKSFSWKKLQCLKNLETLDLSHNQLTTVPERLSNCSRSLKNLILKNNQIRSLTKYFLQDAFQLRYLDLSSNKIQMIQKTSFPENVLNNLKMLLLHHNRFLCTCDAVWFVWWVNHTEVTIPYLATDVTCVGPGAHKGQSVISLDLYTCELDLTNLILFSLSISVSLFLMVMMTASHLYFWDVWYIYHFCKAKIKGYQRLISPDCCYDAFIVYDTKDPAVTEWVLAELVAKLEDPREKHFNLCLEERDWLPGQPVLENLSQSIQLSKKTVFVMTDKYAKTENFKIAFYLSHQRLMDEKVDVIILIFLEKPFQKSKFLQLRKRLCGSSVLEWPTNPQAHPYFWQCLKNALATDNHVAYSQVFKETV
Chain of human TLR8 (Q9NR97 27-1041): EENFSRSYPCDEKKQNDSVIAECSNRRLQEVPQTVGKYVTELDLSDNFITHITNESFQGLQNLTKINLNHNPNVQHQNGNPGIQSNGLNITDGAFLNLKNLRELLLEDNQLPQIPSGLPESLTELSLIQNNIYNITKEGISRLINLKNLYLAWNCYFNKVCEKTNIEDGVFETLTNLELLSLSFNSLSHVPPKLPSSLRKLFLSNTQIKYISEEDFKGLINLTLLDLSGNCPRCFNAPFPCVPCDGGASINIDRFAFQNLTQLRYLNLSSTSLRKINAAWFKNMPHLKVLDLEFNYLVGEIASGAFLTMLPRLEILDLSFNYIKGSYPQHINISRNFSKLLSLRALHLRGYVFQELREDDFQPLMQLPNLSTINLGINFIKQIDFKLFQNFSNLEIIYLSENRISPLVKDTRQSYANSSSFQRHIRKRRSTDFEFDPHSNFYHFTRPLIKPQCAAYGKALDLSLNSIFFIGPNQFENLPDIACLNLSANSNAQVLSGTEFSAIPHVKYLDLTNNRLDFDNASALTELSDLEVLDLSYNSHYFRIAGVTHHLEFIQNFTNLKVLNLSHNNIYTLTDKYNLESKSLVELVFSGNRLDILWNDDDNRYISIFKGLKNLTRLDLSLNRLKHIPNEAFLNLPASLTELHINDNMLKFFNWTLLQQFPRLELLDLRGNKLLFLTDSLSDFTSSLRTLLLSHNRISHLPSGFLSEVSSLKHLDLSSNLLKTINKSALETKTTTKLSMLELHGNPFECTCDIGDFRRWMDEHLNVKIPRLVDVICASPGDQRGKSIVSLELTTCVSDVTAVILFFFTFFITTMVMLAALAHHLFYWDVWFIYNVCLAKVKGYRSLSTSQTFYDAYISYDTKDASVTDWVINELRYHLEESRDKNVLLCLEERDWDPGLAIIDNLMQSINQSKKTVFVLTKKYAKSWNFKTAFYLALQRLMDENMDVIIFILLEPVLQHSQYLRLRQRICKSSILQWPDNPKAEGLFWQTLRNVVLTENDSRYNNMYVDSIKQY
Chain of human TLR9 (Q9NR96 26-1032): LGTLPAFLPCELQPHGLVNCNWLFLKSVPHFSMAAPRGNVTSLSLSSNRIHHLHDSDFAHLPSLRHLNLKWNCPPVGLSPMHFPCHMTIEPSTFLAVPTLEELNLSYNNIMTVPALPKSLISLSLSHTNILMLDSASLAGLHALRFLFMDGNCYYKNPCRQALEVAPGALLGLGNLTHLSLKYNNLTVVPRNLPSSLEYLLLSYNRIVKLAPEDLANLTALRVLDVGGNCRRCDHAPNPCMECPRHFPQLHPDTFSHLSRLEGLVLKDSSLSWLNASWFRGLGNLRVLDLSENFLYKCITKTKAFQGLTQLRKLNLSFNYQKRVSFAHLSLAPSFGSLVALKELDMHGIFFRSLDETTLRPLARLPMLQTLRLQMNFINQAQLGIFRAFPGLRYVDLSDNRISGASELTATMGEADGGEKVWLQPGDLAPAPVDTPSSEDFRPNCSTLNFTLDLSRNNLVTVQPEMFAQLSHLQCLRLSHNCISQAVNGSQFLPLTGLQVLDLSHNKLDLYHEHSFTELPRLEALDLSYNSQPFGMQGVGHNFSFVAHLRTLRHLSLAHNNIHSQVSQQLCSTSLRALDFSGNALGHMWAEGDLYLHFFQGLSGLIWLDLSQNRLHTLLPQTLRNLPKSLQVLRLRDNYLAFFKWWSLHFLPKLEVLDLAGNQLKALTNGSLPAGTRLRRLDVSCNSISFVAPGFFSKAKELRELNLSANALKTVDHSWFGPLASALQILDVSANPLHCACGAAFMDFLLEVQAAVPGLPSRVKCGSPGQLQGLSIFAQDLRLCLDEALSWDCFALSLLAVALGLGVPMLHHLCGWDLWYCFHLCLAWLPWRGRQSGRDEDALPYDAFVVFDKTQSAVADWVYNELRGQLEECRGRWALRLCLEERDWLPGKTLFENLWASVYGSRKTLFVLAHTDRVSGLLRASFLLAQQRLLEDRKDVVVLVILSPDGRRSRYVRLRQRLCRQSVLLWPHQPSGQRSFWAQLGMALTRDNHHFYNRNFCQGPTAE

| Compound | IC50 [1, 4] | IC50 [2, 5] | IC50 [3, 6] | IC50 [1, 7] | IC50 [2, 8] | IC50 [3, 9] | IC50 ([1]; TLR8 IC50, HEK-Blue cells overexpressing human TLR8, R848 15.9 μM) | IC50 ([3]; TLR9 IC50, HEK-Blue cells overexpressing human TLR9, ODN2006 5 nM) |
| --- | --- | --- | --- | --- | --- | --- | --- | --- |
| Cc1cc(-c2[nH]c3ccc(C4CCN(CC(=O)N5CCC5)CC4)cc3c2C(C)C)cc(C)n1 [Example 227, 1-(azetidin-1-yl)-2-(4-(2-(2,6-dimethylpyridin-4-yl)-3-isopropyl-1H-indol-5-yl)piperidin-1-yl)ethan-1-one] | 9.1 nM | 3.8 nM | 1500 nM |  |  |  |  |  |
| Cc1cc(-c2[nH]c3ccc(C4CCN(C(=O)CCn5ccnc5C)CC4)cc3c2C(C)C)cc(C)n1 [Example 124, 1-(4-(2-(2,6-dimethylpyridin-4-yl)-3-isopropyl-1H-indol-5-yl)piperidin-1-yl)-3-(2-methyl-1H-imidazol-1-yl)propan-1-one] | 10.1 nM | 1.9 nM | 394 nM |  |  |  |  |  |
| CCc1c(-c2ccncc2)[nH]c2ccc(C3CCNCC3)cc12 [Example 60, 3-ethyl-5-(piperidin-4-yl)-2-(pyridin-4-yl)-1H-indole] | 36.8 nM | 96.3 nM | 671 nM |  |  |  |  |  |
| Cc1cc(-c2[nH]c3ccc(C4CCN(C(=O)CN(C)[C@@H]5CCOC5)CC4)cc3c2C(C)C)cc(C)n1 [Example 402, (R)-1-(4-(2-(2,6-dimethylpyridin-4-yl)-3-isopropyl-1H-indol-5-yl)piperidin-1-yl)-2-(methyl(tetrahydrofuran-3-yl)amino) ethan-1-one] | 61.1 nM | 11.1 nM | 1820 nM |  |  |  |  |  |
| CC(C)c1c(-c2ccnc(C(C)(C)O)c2)[nH]c2ccc(C3CCNCC3)cc12 [Example 58, 2-(4-(3-isopropyl-5-(piperidin-4-yl)-1H-indol-2-yl)pyridin-2-yl)propan-2-ol] | 667 nM | 31.2 nM | 888 nM |  |  |  |  |  |
| Cc1cc(-c2[nH]c3ccc(C4CCN(CC(=O)NC5(C)CCOCC5)CC4)cc3c2C(C)C)cc(C)n1 [Example 267, 2-(4-(2-(2,6-dimethylpyridin-4-yl)-3-isopropyl-1H-indol-5-yl)piperidin-1-yl)-N-(4-methyltetrahydro-2H-pyran-4-yl)acetamide] | 11.1 nM | 2.6 nM | 348 nM |  |  |  |  |  |
| CC(=O)NCC(=O)N1CCC(c2ccc3[nH]c(-c4cc(C)nc(C)c4)c(C(C)C)c3c2)CC1 [Example 166, N-(2-(4-(2-(2,6-dimethylpyridin-4-yl)-3-isopropyl-1H-indol-5-yl)piperidin-1-yl)-2-oxoethyl)acetamide] | 79.8 nM | 0.5 nM | > 50000 nM |  |  |  |  |  |
| Cc1cc(-c2[nH]c3ccc(C4CCN(C(=O)CNC56CC7CC(CC(C7)C5)C6)CC4)cc3c2C(C)C)cc(C)n1 [Example 342, 2-(adamantan-1-ylamino)-1-(4-(2-(2,6-dimethylpyridin-4-yl)-3-isopropyl-1H-indol-5-yl)piperidin-1-yl)ethan-1-one] | 67.1 nM | 26.2 nM | 656 nM |  |  |  |  |  |
| Cc1cc(-c2[nH]c3ccc(C4CCNCC4)cc3c2C(C)C)cc(C)[n+]1[O-] [Example 56, 2-(2,6-dimethyl-1-(l1-oxidanyl)-1l4-pyridin-4-yl)-3-isopropyl-5-(piperidin-4-yl)-1H-indole] | 23.9 nM | 4.6 nM | 804 nM |  |  |  |  |  |
| Cc1cc(-c2[nH]c3ccc(C4CCN(C(=O)CN5CCCC5C)CC4)cc3c2C(C)C)cc(C)n1 (stereo not drawn) [Example 366, 1-(4-(2-(2,6-dimethylpyridin-4-yl)-3-isopropyl-1H-indol-5-yl)piperidin-1-yl)-2-(2-methylpyrrolidin-1-yl)ethan-1-one] | 10.9 nM | 3.2 nM | 370 nM |  |  |  |  |  |
| Cc1cc(-c2[nH]c3ccc(C4CCN(C(=O)CNCCC(C)O)CC4)cc3c2C(C)C)cc(C)n1 (stereo not drawn) [Example 369, 1-(4-(2-(2,6-dimethylpyridin-4-yl)-3-isopropyl-1H-indol-5-yl)piperidin-1-yl)-2-((3-hydroxybutyl)amino)ethan-1-one] | 93.8 nM | 10.3 nM | 1060 nM |  |  |  |  |  |
| CCC(CC)NCC(=O)N1CCC(c2ccc3[nH]c(-c4cc(C)nc(C)c4)c(C(C)C)c3c2)CC1 [Example 345, 1-(4-(2-(2,6-dimethylpyridin-4-yl)-3-isopropyl-1H-indol-5-yl)piperidin-1-yl)-2-(pentan-3-ylamino)ethan-1-one] | 34 nM | 12.3 nM | 544 nM |  |  |  |  |  |
| CCc1c(-c2ccnc(-n3ccnc3)c2)[nH]c2ccc(C3CCNCC3)cc12 [Example 67, 2-(2-(1H-imidazol-1-yl)pyridin-4-yl)-3-ethyl-5-(piperidin-4-yl)-1H-indole] | 9 nM | 1010 nM | 396 nM |  |  |  |  |  |

Other lines, results leading:

| IC50 [1, 4] | IC50 [2, 5] | IC50 [3, 6] | IC50 [1, 7] | IC50 [2, 8] | IC50 [3, 9] | IC50 ([1]; TLR8 IC50, HEK-Blue cells overexpressing human TLR8, R848 15.9 μM) | IC50 ([3]; TLR9 IC50, HEK-Blue cells overexpressing human TLR9, ODN2006 5 nM) | Compound |
| --- | --- | --- | --- | --- | --- | --- | --- | --- |
| 5.2 nM | 2.7 nM | 2910 nM |  |  |  |  |  | Cc1nccc(-c2[nH]c3ccc(C4CCN(C(=O)CN(C)C)CC4)cc3c2C(C)C)c1F [Example 587, 2-(dimethylamino)-1-(4-(2-(3-fluoro-2-methylpyridin-4-yl)-3-isopropyl-1H-indol-5-yl)piperidin-1-yl)ethan-1-one] |
| 638 nM | 64.2 nM | 33900 nM |  |  |  |  |  | CC(=O)N1CCC(c2ccc3[nH]c(-c4cc(C)nc(C5CC5)c4)c(C(C)C)c3c2)CC1 [Example 504, 1-(4-(2-(2-cyclopropyl-6-methylpyridin-4-yl)-3-isopropyl-1H-indol-5-yl)piperidin-1-yl)ethan-1-one] |
| 1150 nM | 144 nM | > 50000 nM |  |  |  |  |  | CC(C)c1c(-c2cc(C3CC3)ncc2F)[nH]c2ccc(C3CCN(C(=O)C4CC(=O)N(C)C4)CC3)cc12 (stereo not drawn) [Example 517, 4-(4-(2-(2-cyclopropyl-5-fluoropyridin-4-yl)-3-isopropyl-1H-indol-5-yl)piperidine-1-carbonyl)-1-methylpyrrolidin-2-one] |
| 1110 nM | 3080 nM | 2190 nM |  |  |  |  |  | CC(C)c1c(-c2ccnc(C(=O)Nc3nccs3)c2)[nH]c2ccc(C3CCNCC3)cc12 [Example 477, 4-(3-isopropyl-5-(piperidin-4-yl)-1H-indol-2-yl)-N-(thiazol-2-yl) picolinamide] |
| 375 nM | 4260 nM | 800 nM |  |  |  |  |  | CCc1c(-c2cc(F)nc(F)c2)[nH]c2ccc(C3CCN(C4CCN(CC(C)C)CC4)CC3)cc12 [Example 761, 2-(2,6-difluoropyridin-4-yl)-3-ethyl-5-(1′-isobutyl-[1,4′-bipiperidin]-4-yl)-1H-indole] |
| 35.5 nM | 17.8 nM | 1340 nM |  |  |  |  |  | Cc1cc(-c2[nH]c3ccc(C4CCN(CC5CCCC5)CC4)cc3c2C(C)C)cc(C)n1 [Example 468, 5-(1-(cyclopentylmethyl)piperidin-4-yl)-2-(2,6-dimethylpyridin-4-yl)-3-isopropyl-1H-indole] |
| 25.5 nM | 25.8 nM | 503 nM |  |  |  |  |  | CC(C)c1c(-c2ccnc(F)c2)[nH]c2ccc(C3CCN(C4CCN(C)CC4)CC3)cc12 [Example 523, 2-(2-fluoropyridin-4-yl)-3-isopropyl-5-(1′-methyl-[1,4′-bipiperidin]-4-yl)-1H-indole] |
| 10.3 nM | 22.5 nM | 10100 nM |  |  |  |  |  | Cc1nccc(-c2[nH]c3ccc(C4CCN(Cc5ncn(C)n5)CC4)cc3c2C(C)C)c1F [Example 732, 2-(3-fluoro-2-methylpyridin-4-yl)-3-isopropyl-5-(1-((1-methyl-1H-1,2,4-triazol-3-yl)methyl)piperidin-4-yl)-1H-indole] |
| 2.6 nM | 6.1 nM | 90 nM |  |  |  |  |  | Cc1cc(-c2[nH]c3ccc(C4CCN(Cc5c[nH]c(C)n5)CC4)cc3c2C(C)C)cc(C)n1 [Example 426, 2-(2,6-dimethylpyridin-4-yl)-3-isopropyl-5-(1-((2-methyl-1H-imidazol-4-yl)methyl)piperidin-4-yl)-1H-indole] |
|  |  |  | 114 nM | 533 nM | 42 nM |  |  | Cc1cc(-c2[nH]c3ccc(C4CCN(C5CCN(C(C)C)CC5)CC4)cc3c2C)cc(C)n1 [Example 813, 2-(2,6-dimethylpyridin-4-yl)-5-(1′-isopropyl-[1,4′-bipiperidin]-4-yl)-3-methyl-1H-indole] |
| 186 nM | 94 nM | > 50000 nM |  |  |  |  |  | Cc1cc(-c2[nH]c3ccc(C4CCN(C(=O)C5CCN(C)C(=O)C5)CC4)cc3c2C(C)C)ccn1 (stereo not drawn) [Example 607, 4-(4-(3-isopropyl-2-(2-methylpyridin-4-yl)-1H-indol-5-yl)piperidine-1-carbonyl)-1-methylpiperidin-2-one] |
|  | 2.4 nM |  |  |  |  | 33.1 nM | 308 nM | Cc1cc(-c2[nH]c3ccc(C4CCNCC4O)cc3c2C(C)C)cc(C)n1 (single isomer, unassigned) [Example 488B, 4-(2-(2,6-dimethylpyridin-4-yl)-3-isopropyl-1H-indol-5-yl)piperidin-3-ol] |
| 8.6 nM | 226 nM | 117 nM |  |  |  |  |  | CCc1c(-c2ccncc2)[nH]c2ccc(C3CCN(C4CC(C)(C)NC(C)(C)C4)CC3)cc12 [Example 807, 3-ethyl-2-(pyridin-4-yl)-5-(2′,2′,6′,6′-tetramethyl-[1,4′-bipiperidin]-4-yl)-1H-indole] |
| 121 nM | 33.7 nM | 32900 nM |  |  |  |  |  | Cc1cc(-c2[nH]c3ccc(C4CCN(C(=O)CC#N)CC4)cc3c2C(C)C)ccn1 [Example 616, 3-(4-(3-isopropyl-2-(2-methylpyridin-4-yl)-1H-indol-5-yl)piperidin-1-yl)-3-oxopropanenitrile] |
|  |  |  | 186 nM | 42.6 nM | 43400 nM |  |  | CC(=O)N1CCC(c2ccc3[nH]c(-c4ccnc(C)c4)c(C(C)C)c3c2)CC1 [Example 826, 1-(4-(3-isopropyl-2-(2-methylpyridin-4-yl)-1H-indol-5-yl)piperidin-1-yl)ethan-1-one] |
